According to patent publication US20230295197A1, “STAT5 and STAT6 Degraders and Uses Thereof” (REGENTS OF THE UNIVERSITY OF MICHICAN, priority 2022, published 2023):
Where two headings read alike, the source gives them in different places.

Target: T1, STAT6 (Homo sapiens, UniProt P42226)
T1 construct: endogenous in cells; host or cells: MOLM-16, KU-812, SKNO1, MB231, L1236
T1 sequence (P42226 1-847): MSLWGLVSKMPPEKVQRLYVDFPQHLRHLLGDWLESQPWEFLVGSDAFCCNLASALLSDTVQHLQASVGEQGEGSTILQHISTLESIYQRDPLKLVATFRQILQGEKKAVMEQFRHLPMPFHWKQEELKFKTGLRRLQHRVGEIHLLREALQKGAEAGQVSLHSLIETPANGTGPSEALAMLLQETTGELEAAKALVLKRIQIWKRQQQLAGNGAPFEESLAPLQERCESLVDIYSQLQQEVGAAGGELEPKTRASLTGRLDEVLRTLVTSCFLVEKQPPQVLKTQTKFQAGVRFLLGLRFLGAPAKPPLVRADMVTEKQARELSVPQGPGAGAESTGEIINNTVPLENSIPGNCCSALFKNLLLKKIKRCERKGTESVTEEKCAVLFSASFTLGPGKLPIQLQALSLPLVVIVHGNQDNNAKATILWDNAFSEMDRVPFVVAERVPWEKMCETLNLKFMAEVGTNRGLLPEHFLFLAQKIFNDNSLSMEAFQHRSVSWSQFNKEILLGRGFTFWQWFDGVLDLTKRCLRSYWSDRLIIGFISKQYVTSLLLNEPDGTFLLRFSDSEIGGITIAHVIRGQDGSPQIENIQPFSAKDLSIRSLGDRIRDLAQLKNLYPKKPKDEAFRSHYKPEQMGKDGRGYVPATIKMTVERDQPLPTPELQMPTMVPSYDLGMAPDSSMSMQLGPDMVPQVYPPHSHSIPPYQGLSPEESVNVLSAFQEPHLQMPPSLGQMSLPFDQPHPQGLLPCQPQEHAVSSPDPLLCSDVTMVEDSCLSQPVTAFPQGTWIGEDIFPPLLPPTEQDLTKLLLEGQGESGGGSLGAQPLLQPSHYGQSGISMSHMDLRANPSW
Assay: Immunoblotting (Western blot) analysis of STAT6 degradation efficiency of degraders in treated cells
Format: cell-based
How it was run: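 Each data point uses roughly one million cells dosed as indicated; pellets are lysed on ice, freeze-thawed, and clarified. Reduced, denatured samples (95 °C, 5 min) run on SDS gels, then membranes receive rabbit mAbs to STAT5 or STAT6 plus mouse anti-GAPDH overnight, followed by dye-labelled secondaries for fluorescence imaging.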

[1] = MOLM-16 cells, class symbols, read-out: DC50 S6 MOLM-16
[2] = L1236 cells, read-out: DC50 S6 L1236

Row | DC50 (MOLM-16 cells, numeric bound, read-out: DC50 S6 MOLM-16) | Structure (SMILES) | DC50 [1] | DC50 [2]
1 |  | CC(C)(C)[C@H](NC(=O)c1cc2cc(C(F)(F)P(=O)(O)O)ccc2s1)C(=O)N1C[C@@H](OCC(=O)NCCCC#Cc2cccc3c2C(=O)N(C2CCC(=O)NC2=O)C3=O)C[C@H]1C(=O)N1CCO[C@H](c2ccccc2)C1 (stereo partly drawn) [Compound 483, ((2-(((2S)-1-((2S,4S)-4-(2-((5-(2-(2,6-dioxopiperidin-3-yl)-1,3-dioxoisoindolin-4-yl)pent-4-yn-1-yl)amino)-2-oxoethoxy)-2-((R)-2-phenylmorpholine-4-carbonyl)pyrrolidin-1-yl)-3,3-dimethyl-1-oxobutan-2-yl)carbamoyl)benzo[b]thiophen-5-yl)difluoromethyl)phosphonic acid] | 1 to 10 µM | 
2 |  | CC(C)(C)[C@H](NC(=O)c1cc2cc(C(F)(F)P(=O)(O)O)ccc2s1)C(=O)N1CCN(C(=O)CC(=O)NCCCCCCCCCC#Cc2ccc3c(c2)C(=O)N(C2CCC(=O)NC2=O)C3=O)C[C@H]1C(=O)N1CCO[C@H](c2ccccc2)C1 (stereo partly drawn) [Compound 520, ((2-(((2S)-1-((2S)-4-(3-((11-(2-(2,6-dioxopiperidin-3-yl)-1,3-dioxoisoindolin-5-yl)undec-10-yn-1-yl)amino)-3-oxopropanoyl)-2-((R)-2-phenylmorpholine-4-carbonyl)piperazin-1-yl)-3,3-dimethyl-1-oxobutan-2-yl)carbamoyl)benzo[b]thiophen-5-yl)difluoromethyl)phosphonic acid] | > 10 µM | 
3 |  | CC(C)(C)[C@H](NC(=O)c1cc2cc(C(F)(F)P(=O)(O)O)ccc2s1)C(=O)N1C[C@@H](NC(=O)CCCCCC#Cc2cccc3c2CN(C2CCC(=O)NC2=O)C3=O)C[C@H]1C(=O)N1CCO[C@H](c2ccccc2)C1 (stereo partly drawn) [Compound 565, ((2-(((2S)-1-((2S,4S)-4-(8-(2-(2,6-dioxopiperidin-3-yl)-1-oxoisoindolin-4-yl)oct-7-ynamido)-2-((R)-2-phenylmorpholine-4-carbonyl)pyrrolidin-1-yl)-3,3-dimethyl-1-oxobutan-2-yl)carbamoyl)benzo[b]thiophen-5-yl)difluoromethyl)phosphonic acid] | > 10 µM | > 10 µM
4 |  | Cc1ncsc1-c1ccc([C@H](C)NC(=O)[C@@H]2C[C@@H](O)CN2C(=O)[C@@H](NC(=O)CCCNC(=O)CO[C@H]2C[C@@H](C(=O)N3CCO[C@H](c4ccccc4)C3)N(C(=O)[C@@H](NC(=O)c3cc4cc(C(F)(F)P(=O)(O)O)ccc4s3)C(C)(C)C)C2)C(C)(C)C)cc1 [Compound 427, (difluoro(2-(((S)-1-((2S,4S)-4-(2-((4-(((S)-1-((2S,4R)-4-hydroxy-2-(((S)-1-(4-(4-methylthiazol-5-yl)phenyl)ethyl)carbamoyl)pyrrolidin-1-yl)-3,3-dimethyl-1-oxobutan-2-yl)amino)-4-oxobutyl)amino)-2-oxoethoxy)-2-((R)-2-phenylmorpholine-4-carbonyl)pyrrolidin-1-yl)-3,3-dimethyl-1-oxobutan-2-yl)carbamoyl)benzo[b]thiophen-5-yl)methyl)phosphonic acid] | > 10 µM | > 10 µM
5 |  | Cc1ncsc1-c1ccc([C@H](C)NC(=O)[C@@H]2C[C@@H](O)CN2C(=O)[C@@H](NC(=O)CCCCCCCCCNC(=O)COc2ccc3c(c2)CN(C(=O)[C@@H](NC(=O)c2cc4cc(C(F)(F)P(=O)(O)O)ccc4s2)C(C)(C)C)[C@H](C(=O)N2CCC[C@H](c4ccccc4)C2)C3)C(C)(C)C)cc1 [Compound 478, (difluoro(2-(((S)-1-((S)-7-(2-((10-(((S)-1-((2S,4R)-4-hydroxy-2-(((S)-1-(4-(4-methylthiazol-5-yl)phenyl)ethyl)carbamoyl)pyrrolidin-1-yl)-3,3-dimethyl-1-oxobutan-2-yl)amino)-10-oxodecyl)amino)-2-oxoethoxy)-3-((R)-3-phenylpiperidine-1-carbonyl)-3,4-dihydroisoquinolin-2(1H)-yl)-3,3-dimethyl-1-oxobutan-2-yl)carbamoyl)benzo[b]thiophen-5-yl)methyl)phosphonic acid] | > 10 µM | 
6 |  | Cc1ncsc1-c1ccc([C@H](C)NC(=O)[C@@H]2C[C@@H](O)CN2C(=O)[C@@H](NC(=O)CNC(=O)COc2ccc3c(c2)CN(C(=O)[C@@H](NC(=O)c2cc4cc(C(F)(F)P(=O)(O)O)ccc4s2)C(C)(C)C)[C@H](C(=O)N2CCO[C@H](c4ccccc4)C2)C3)C(C)(C)C)cc1 [Compound 461, (difluoro(2-(((S)-1-((S)-7-(2-((2-(((S)-1-((2S,4R)-4-hydroxy-2-(((S)-1-(4-(4-methylthiazol-5-yl)phenyl)ethyl)carbamoyl)pyrrolidin-1-yl)-3,3-dimethyl-1-oxobutan-2-yl)amino)-2-oxoethyl)amino)-2-oxoethoxy)-3-((R)-2-phenylmorpholine-4-carbonyl)-3,4-dihydroisoquinolin-2(1H)-yl)-3,3-dimethyl-1-oxobutan-2-yl)carbamoyl)benzo[b]thiophen-5-yl)methyl)phosphonic acid] | > 10 µM | > 10 µM
7 |  | CC(C)(C)[C@H](NC(=O)c1cc2cc(C(F)(F)P(=O)(O)O)ccc2s1)C(=O)N1C[C@@H](OCCCCCCC#Cc2cccc3c2CN(C2CCC(=O)NC2=O)C3=O)C[C@H]1C(=O)N1CCS(=O)(=O)C(c2ccccc2)C1 (stereo partly drawn) [Compound 607, ((2-(((2S)-1-((2S,4S)-2-(1,1-dioxido-2-phenylthiomorpholine-4-carbonyl)-4-((8-(2-(2,6-dioxopiperidin-3-yl)-1-oxoisoindolin-4-yl)oct-7-yn-1-yl)oxy)pyrrolidin-1-yl)-3,3-dimethyl-1-oxobutan-2-yl)carbamoyl)benzo[b]thiophen-5-yl)difluoromethyl)phosphonic acid] | < 0.1 µM | 
8 |  | Cc1ncsc1-c1ccc([C@H](C)NC(=O)[C@@H]2C[C@@H](O)CN2C(=O)[C@@H](NC(=O)CCNC(=O)COc2ccc3c(c2)CN(C(=O)[C@@H](NC(=O)c2cc4cc(C(F)(F)P(=O)(O)O)ccc4s2)C(C)(C)C)[C@H](C(=O)N2CCC[C@H](c4ccccc4)C2)C3)C(C)(C)C)cc1 [Compound 471, (difluoro(2-(((S)-1-((S)-7-(2-((3-(((S)-1-((2S,4R)-4-hydroxy-2-(((S)-1-(4-(4-methylthiazol-5-yl)phenyl)ethyl)carbamoyl)pyrrolidin-1-yl)-3,3-dimethyl-1-oxobutan-2-yl)amino)-3-oxopropyl)amino)-2-oxoethoxy)-3-((R)-3-phenylpiperidine-1-carbonyl)-3,4-dihydroisoquinolin-2(1H)-yl)-3,3-dimethyl-1-oxobutan-2-yl)carbamoyl)benzo[b]thiophen-5-yl)methyl)phosphonic acid] | > 10 µM | 
9 | > 0.3 µM | CC(C)(C)[C@H](NC(=O)c1cc2cc(C(F)(F)P(=O)(O)O)ccc2s1)C(=O)N1C[C@H](OCCCCCC#Cc2cccc3c2CN(C2CCC(=O)NC2=O)C3=O)C[C@H]1C(=O)N1CCO[C@H](c2ccccc2)C1 (stereo partly drawn) [Compound 600, ((2-(((2S)-1-((2S,4R)-4-((7-(2-(2,6-dioxopiperidin-3-yl)-1-oxoisoindolin-4-yl)hept-6-yn-1-yl)oxy)-2-((R)-2-phenylmorpholine-4-carbonyl)pyrrolidin-1-yl)-3,3-dimethyl-1-oxobutan-2-yl)carbamoyl)benzo[b]thiophen-5-yl)difluoromethyl)phosphonic acid] |  | 
